US11976083B2, “Inhibitors of peptidylarginine deiminases” (Gilead Sciences, Inc., priority 2020, dated 2024)

Target: T1, human PAD4 (Homo sapiens, UniProt Q9UM07)
T1 construct: human PAD4 (NM_012387), A2-P663, was PCR amplified; His-SUMO (N, cleaved yes); made in house; host or cells: E. coli BL21(DE3)
Assay: In vitro PAD4 BAEE biochemical assay
Conditions: BAEE substrate 3 mM, 5 nM PAD4, 2 mM calcium chloride; geometric mean of multiple experiments
Method in brief: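 Assay was run at 25 °C using 3 mM BAEE and 5 nM human PAD4 after a 30 min compound preincubation; ammonia produced over 2 h was quantified by OPA-derived fluorescence. Full inhibition was defined by 50 µM BB-Cl-Amidine, and IC50 came from variable-slope nonlinear regression.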

T1 sequence (Q9UM07 2-663): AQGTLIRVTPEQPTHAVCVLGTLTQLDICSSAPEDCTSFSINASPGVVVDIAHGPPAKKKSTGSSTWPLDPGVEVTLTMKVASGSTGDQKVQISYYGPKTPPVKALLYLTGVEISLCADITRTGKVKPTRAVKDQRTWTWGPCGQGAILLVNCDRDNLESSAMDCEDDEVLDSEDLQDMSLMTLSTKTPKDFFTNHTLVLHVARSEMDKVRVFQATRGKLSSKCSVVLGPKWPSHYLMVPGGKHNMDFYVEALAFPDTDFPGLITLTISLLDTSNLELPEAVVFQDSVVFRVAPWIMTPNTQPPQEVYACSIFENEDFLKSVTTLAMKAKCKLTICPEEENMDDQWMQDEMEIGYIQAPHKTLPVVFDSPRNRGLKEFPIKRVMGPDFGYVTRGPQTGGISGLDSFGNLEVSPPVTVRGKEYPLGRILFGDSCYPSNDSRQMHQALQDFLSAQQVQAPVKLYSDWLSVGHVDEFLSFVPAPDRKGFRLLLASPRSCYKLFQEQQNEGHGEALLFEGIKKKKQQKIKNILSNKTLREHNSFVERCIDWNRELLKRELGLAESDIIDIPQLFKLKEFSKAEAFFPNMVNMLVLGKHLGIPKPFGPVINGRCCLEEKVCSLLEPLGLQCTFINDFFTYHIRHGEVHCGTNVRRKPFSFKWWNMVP

Row | IC50 [µM] | Compound
1 | 3.13 | COc1cc(C(=O)N2[C@H]3CC[C@@H]2[C@H](N)C3)cc2nc(-c3cc4ccc5nc4n3CCCCCCNc3ncccc3-5)n(C)c12 [Example 96, [(1˜{R},2˜{R},4˜{S})-2-amino-7-azabicyclo[2.2.1]heptan-7-yl]-[7-methoxy-1-methyl-2-(6,8,15,21-tetrazatetracyclo[13.5.2.0^{2,7}.0^{18,22}]docosa-1(21),2,4,6,16,18(22),19-heptaen-16-yl)benzimidazol-5-yl]methanone]
2 | 0.054 | COCCOCCn1c(-c2cc3ccc4nc3n2CCCCC[C@@H]2C[C@H]2C(=O)N[C@@H]4C)nc2cc(C(=O)N[C@H]3CNCC[C@@H]3F)c(F)cc21 [Example 427, 6-fluoro-~{N}-[(3~{S),4~{S})-4-fluoro-3-piperidyl]-1-[2-(2-methoxyethoxy)ethyl]-2-[(2~{R},5~{R},7~{R})-2-methyl-4-oxo-3,13,19-triazatetracyclo[11.5.2.0^{5,7}.0^{16,20}]icosa-1(19),14,16(20),17-tetraen-14-yl]benzimidazole-5-carboxamide]
3 | 3.32 | COc1cc(C(=O)N2CC[C@@H]3OCCN[C@@H]3C2)cc2nc(-c3cc4ccc5nc4n3C[C@H]3C[C@H]3COCCC(=O)N[C@@H]5C)n(C)c12 (single isomer, unassigned) [Example 246, (3˜{S},5˜{R},12˜{R})-18-[5-[(4˜{a}˜{R},8˜{a}˜{S})-2,3,4,4˜{a},5,7,8,8˜{a}-octahydropyrido[4,3-b][1,4]oxazine-6-carbonyl]-7-methoxy-1-methyl-benzimidazol-2-yl]-12-methyl-7-oxa-1,11,20-triazatetracyclo[11.5.2.0^{3,5}.0^{16,19}]icosa-13(20),14,16(19),17-tetraen-10-one]
4 | 0.036 | COc1cc(C(=O)N2CCC[C@@H](N)C2)cc2nc(-c3cc4ccc5nc4n3C[C@@H]3C[C@H]3CCCCC(=O)N[C@@H]5C)n(C)c12 [Example 269, (3~{R},5~{R},12~{R})-18-[5-[(3~{R})-3-aminopiperidine-1-carbonyl]-7-methoxy-1-methyl-benzimidazol-2-yl]-12-methyl-1,11,20-triazatetracyclo[11.5.2.0^{3,5}.0^{16,19}] icosa-13(20),14,16(19),17-tetraen-10-one]
5 | 1.78 | COc1cc(C(=O)N2CCC[C@@H](N)C2)cc2nc(-c3cc4ccc5nc4n3CCCCOc3ccccc3C(=O)N[C@@H]5C)n(C)c12 [Example 30, (2~{R})-17-[5-[(3~{R})-3-aminopiperidine-1-carbonyl]-7-methoxy-1-methyl-benzimidazol-2-yl]-2-methyl-11-oxa-3,16,22-triazatetracyclo[14.5.2.0^{5,10).0^{19,23}] tricosa-1(22),5,7,9,17,19(23),20-heptaen-4-one]
6 | 0.086 | COc1cc(C(=O)N2[C@H]3CC[C@@H]2[C@H](N)C3)cc2nc(-c3cc4ccc5nc4n3CCCCCCC(=O)Nc3cnccc3-5)n(C)c12 [Example 95, 17-[5-[(1~{R},2~{R},4~{S})-2-amino-7-azabicyclo[2.2.1]heptane-7-carbonyl]-7-methoxy-1-methyl-benzimidazol-2-yl]-5,8,16,22-tetrazatetracyclo[14.5.2.0^{2,7}.0^{19,23}] tricosa-1(22),2,4,6,17,19(23),20-heptaen-9-one]
7 | 0.049 | COc1cc(C(=O)N2CCC[C@@H](N)C2)cc2nc(-c3cc4ccc5nc4n3C[C@H]3C[C@@H]3CCCC(C)C(=O)N[C@@H]5C)n(C)c12 (stereo partly drawn) [Example 166, (3~{S},5~{S},12~{R})-18-[5-[(3~{R})-3-aminopiperidine-1-carbonyl]-7-methoxy-1-methyl-benzimidazol-2-yl]-9,12-dimethyl-1,11,20-triazatetracyclo[11.5.2.0^{3,5}.0^{16,19}] icosa-13(20),14,16(19),17-tetraen-10-one]
8 | 0.112 | COc1cc(C(=O)N[C@H]2CNCC[C@@H]2F)cc2nc(-c3cc4ccc5nc4n3CC(F)(F)CCCCC(C)(C)C(=O)N[C@@H]5C)n(C)c12 [Example 594, 2-[(11~{R})-3,3-difluoro-8,8,11-trimethyl-9-oxo-1,10,19-triazatricyclo [10.5.2.0^{15,18}]nonadeca-12,14,16,18-tetraen-17-yl]-~ {N}-[(3~{S},4~{S})-4-fluoro-3-piperidyl]-7-methoxy-1-methyl-benzimidazole-5-carboxamide]
9 | 0.119 | COc1cc(C(=O)N[C@H]2CNCC[C@@H]2F)cc2nc(-c3cc4ccc5nc4n3C[C@@H]3[C@@H](CCCC(C)(C)C(=O)N[C@@H]5C)C3(F)F)n(C)c12 (single isomer, unassigned) [Example 365, 2-[(3˜{S},5˜{R},12˜{R})-4,4-difluoro-9,9,12-trimethyl-10-oxo-1,11,20-triazatetracyclo[11.5.2.0^{3,5}.0^{16,19}]icosa-13(20),14,16(19),17-tetraen-18-yl]-˜{N}-[(3˜{S},4˜{S})-4-fluoro-3-piperidyl]-7-methoxy-1-methyl-benzimidazole-5-carboxamide]
10 | 0.045 | COc1cc(C(=O)N[C@H]2CNCC[C@@H]2F)cc2nc(-c3cc4ccc5nc4n3C[C@H]3C[C@H]3COCCC(=O)N[C@@H]5C)n(C)c12 [Example 315, ~{N}-[(3~{S},4~{S})-4-fluoro-3-piperidyl]-7-methoxy-1-methyl-2-[(3~{S},5~{R},12~{R})-12-methyl-10-oxo-7-oxa-1,11,20-triazatetracyclo[11.5.2.0^{3,5}.0^{16,19}]icosa-13(20),14,16(19),17-tetraen-18-yl]benzimidazole-5-carboxamide]
11 | 0.062 | COc1cc(C(=O)N2CCC[C@@H](N)C2)cc2nc(-c3cc4ccc5cc4n3CCCCCCC3(CC3)C(=O)N[C@@H]5C)n(C3CC3)c12 [Example 159, (11~{R})-17-[5-[(3~{R})-3-aminopiperidine-1-carbonyl]-1-cyclopropyl-7-methoxy-benzimidazol-2-yl]-11-methyl-spiro[1,10-diazatricyclo[10.5.2.0^{15,18}]nonadeca-12(19),13,15(18),16-tetraene-8,1′-cyclopropane]-9-one]
12 | 0.029 | C[C@H]1NC(=O)[C@](F)(c2ccccn2)CCCCCCn2c(-c3nc4cc(C(=O)N5C[C@H](N)[C@@H]6CC[C@H]5C6)cc(F)c4n3C3CC3)cc3ccc1nc32 [Example 886, (8~{R},11~{R})-17-[5-[(1~{S),4~{R},5~{R))-4-amino-2-azabicyclo[3.2.1]octane-2-carbonyl]-1-cyclopropyl-7-fluoro-benzimidazol-2-yl]-8-fluoro-11-methyl-8-(2-pyridyl)-1,10,19-triazatricyclo [10.5.2.0^{15,18}]nonadeca-12(19),13,15(18), 16-tetraen-9-one]
13 | 0.303 | COc1cc(C(=O)N2CCC[C@@H](N)C2)cc2nc(-c3cc4ccc5nc4n3CCCCOCC(=O)N3CCC[C@H]53)n(C)c12 [Example 109, (2~{R})-15-[5-[(3~{R})-3-aminopiperidine-1-carbonyl]-7-methoxy-1-methyl-benzimidazol-2-yl]-9-oxa-6,14,20-triazatetracyclo[12.5.2.0^{2,6}.0^{17,21}] henicosa-1(20),15,17(21),18-tetraen-7-one]
14 | 0.033 | COc1cc(C(=O)N2[C@H]3CC[C@@H]2[C@H](N)C3)cc2nc(-c3cc4ccc5nc4n3CCCCC[C@@H](OC)CC(=O)N[C@@H]5C)c(C)n12 [Example 333, (7~{R},11~{R})-17-[7-[(1~{R},2~{R},4~{S})-2-amino-7-azabicyclo[2.2.1]heptane-7-carbonyl)-5-methoxy-3-methyl-imidazo[1,2-a]pyridin-2-yl]-7-methoxy-11-methyl-1,10,19-triazatricyclo[10.5.2.0^{15,18}]nonadeca-12(19),13,15(18),16-tetraen-9-one]
15 | 0.131 | C[C@H]1NC(=O)CCCCCCCn2c(-c3nc4cc(C(=O)N5CCC[C@@H](N)C5)ccn4c3C3CC3)cc3ccc1nc32 [Example 228, (11~{R})-17-[7-[(3~{R})-3-aminopiperidine-1-carbonyl]-3-cyclopropyl-imidazo[1,2-a]pyridin-2-yl]-11-methyl-1,10,19-triazatricyclo[10.5.2.0^{15,18}]nonadeca-12(19),13,15(18),16-tetraen-9-one]
16 | 0.221 | COc1cc(C(=O)N2C[C@H]3CC[C@@H]2[C@@H]3N)cc2nc(-c3cc4ccc5nc4n3CCCCCCCCCC(=O)N[C@@H]5C)c(C)n12 [Example 290, (13~{R})-19-[7-[(1~{R},4~{R},7~{R})-7-amino-2-azabicyclo[2.2.1]heptane-2-carbonyl]-5-methoxy-3-methyl-imidazo[1,2-a]pyridin-2-yl]-13-methyl-1,12,21-triazatricyclo[12.5.2.0^{17,20}]henicosa-14(21),15,17(20),18-tetraen-11-one]
17 | 0.005 | C[C@@H]1[C@H](N)CCCN1C(=O)c1cc(F)c2c(c1)nc(-c1cc3ccc4nc3n1CC(F)(F)CCC[C@]1(F)C[C@H]1C(=O)N[C@@H]4C)n2C1CC1 [Example 701, (2~{R},5~{S},7~{S})-14-[5-[(2~{R},3~{R})-3-amino-2-methyl-piperidine-1-carbonyl]-1-cyclopropyl-7-fluoro-benzimidazol-2-yl]-7,11,11-trifluoro-2-methyl-3,13,19-triazatetracyclo[11.5.2.0^ {5,7}.0^{16,20}]icosa-1(19),14,16(20),17-tetraen-4-one]
18 | 0.032 | C[C@H]1NC(=O)C2C[C@H]2CCCCCn2c(-c3nc4cc(C(=O)N[C@H]5CNCC[C@@H]5F)cc(Cl)c4n3C)cc3ccc1nc32 (stereo partly drawn) [Example 507, 7-chloro-~{N}-[(3~ {S},4~{S})-4-fluoro-3-piperidyl]-1-methyl-2-[(2~{R},7~{R})-2-methyl-4-oxo-3,13,19-triazatetracyclo[11.5.2.0^ {5,7}.0^{16,20}]icosa-1 (19),14,16(20),17-tetraen-14-yl]benzimidazole-5-carboxamide]
